Reference: patent US8993310B2, “Device for diagnosis of physiologic status and/or selection of the best spermatozoa of a semen sample based on chemotaxis, and procedure of use thereof” (Consejo Nacional de Investigaciones Cientificas y Technicas …, priority 2009, dated 2015)
“Also recorded” adds a separate entry of the source.

System: spermatozoa
Test: Sperm separation by chemotaxis in the two-compartment device (aggregation in compartment 1a)
Assay type: cell-based
Conditions: for percentage of aggregated spermatozoa in compartment 1a by chemotaxis (net, Δ vs control): 6 million S/ml, 10 pM progesterone, 20 minutes incubation
Procedure: Separation of mobile spermatozoa (S) of seminal plasma is done by the Percoll technique. A volume of about 2 ml semen is used, which is deposited on 1 ml Percoll gradient (lower layer: 500 μl Percoll 95%, upper layer: 500 μl of Percoll 47.5%, in HAM-F10). After centrifuging 20 minutes at 1800 rpm, the cell pellet is recovered and washed twice by centrifugation for 7 min at 1000 rpm, with HAM-F10 medium. Finally, the recovered pellet is suspended in 1 ml of HAM-F10 medium, cell count is performed in a cell count chamber, and volume is adjusted in order to obtain a concentration of 8 million S/ml. S capability is increased in HAM-F10 medium supplemented with 1% human serum albumin (HSA) for 4 hours a 37° C., under 5% CO2 atmosphere in air.
When capacitation time is finished, S concentration is adjusted in order to obtain 6 million mobile S/ml, and two devices are set up as described in the preceding section (FIGS. 1-3), one without attractant as negative control, and the other with progesterone as attractant.
To set up the device control, a device as described in FIGS. 1 to 3, proceed as follows: 1) the plug is placed in compartment 1a, where culture medium (HAM-F10/1%HSA) is placed, 2) the bridge linking both compartments is filled with culture medium, 3) S suspension is placed in compartment 1b (130 μl of the solution of 6 million mobile S/ml) and this compartment is closed with the plug, 4) compartment 1a is unplugged and filled with culture medium (130 μl).
For device set up with the attractant, another device is prepared as described in FIGS. 1 to 3, like the device control but replacing culture medium with a 10 pM Progesterone solution diluted in culture medium. Once both devices are set up (“Control” and “Attractant”), they are incubated for 20 minutes at 37° C., under 5% CO2 atmosphere in air.
To take the device apart and recover the best spermatozoa, the compartment solution (1a) containing culture medium or attractant is removed. On the spermatozoa suspension removed from compartment 1a of both devices (control and attractant) cell count is performed in a cell count chamber. Then the difference in percentage of S found in each of these two compartments is determined, which enables to value net percentage of S migrating to the attractant-containing compartment (“Δ”).

Row | Compound | percentage of aggregated spermatozoa in compartment 1a by chemotaxis (net, Δ vs control) | percentage of aggregated spermatozoa in compartment 1a by chemotaxis (net, Δ vs control) (listed as Progesterone) | sperm aggregation in a decreasing versus an increasing gradient of progesterone (decreasing gradient of attractant compared with increasing gradient (FIG. 10)) | sperm aggregation in the absence of gradient of progesterone (equal concentration of hormone in both compartments 1a and 1b (FIG. 10)) | sperm aggregation in compartment 1a by chemotaxis when cells were previously treated with inhibitor or antibody (cells pre-treated, progesterone as attractant (FIGS. 8 and 9))
1 | CC(=O)[C@H]1CC[C@H]2[C@@H]3CCC4=CC(=O)CC[C@]4(C)[C@H]3CC[C@]12C [progesterone] | about 10% | 9±0.4% | similar | sperm aggregation is reduced; also recorded: no sperm aggregation observed | –
2 | C[C@H]1O[C@@H](n2cnc3c(N)ncnc32)C[C@@H]1O [ddAdo] | – | – | – | – | no sperm aggregation due to chemotaxis is seen
